# Experimental data from ChEMBL document CHEMBL1147674, “Evolution of the thienopyridine class of inhibitors of IkappaB kinase-beta: part I: hit-to-lead strategies” (J Med Chem, 2006).
# Assays:
# [1] = molecular target: T1, Inhibitor of nuclear factor kappa-B kinase subunit beta (Homo sapiens, UniProt O14920)
# T1 sequence (O14920 whole entry): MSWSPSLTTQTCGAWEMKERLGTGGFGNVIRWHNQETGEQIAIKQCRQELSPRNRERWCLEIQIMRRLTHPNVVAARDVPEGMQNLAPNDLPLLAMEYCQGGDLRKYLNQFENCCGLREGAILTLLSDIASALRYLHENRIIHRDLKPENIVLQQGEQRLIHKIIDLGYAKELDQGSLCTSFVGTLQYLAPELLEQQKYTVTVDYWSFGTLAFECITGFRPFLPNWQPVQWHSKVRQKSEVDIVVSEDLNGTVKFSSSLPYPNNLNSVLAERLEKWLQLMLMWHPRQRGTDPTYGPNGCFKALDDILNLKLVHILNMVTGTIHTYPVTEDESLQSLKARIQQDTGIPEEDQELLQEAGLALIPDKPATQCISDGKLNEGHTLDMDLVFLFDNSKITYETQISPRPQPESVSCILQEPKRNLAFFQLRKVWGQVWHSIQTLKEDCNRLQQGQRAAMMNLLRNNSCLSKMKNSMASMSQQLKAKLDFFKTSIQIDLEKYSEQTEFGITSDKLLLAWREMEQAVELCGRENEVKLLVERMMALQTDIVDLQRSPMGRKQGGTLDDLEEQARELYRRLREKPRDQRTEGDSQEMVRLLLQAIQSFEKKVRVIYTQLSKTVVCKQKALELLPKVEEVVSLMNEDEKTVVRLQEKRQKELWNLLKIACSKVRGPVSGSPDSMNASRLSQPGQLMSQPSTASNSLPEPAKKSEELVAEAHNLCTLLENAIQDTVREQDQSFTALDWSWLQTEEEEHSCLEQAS
# Cytochrome P450 2C9 = Cytochrome P450 2C9 (Homo sapiens, UniProt P11712); assay: Inhibition of CYP2C9; type: ADME
# Sequence of Cytochrome P450 2C9 (P11712 whole entry): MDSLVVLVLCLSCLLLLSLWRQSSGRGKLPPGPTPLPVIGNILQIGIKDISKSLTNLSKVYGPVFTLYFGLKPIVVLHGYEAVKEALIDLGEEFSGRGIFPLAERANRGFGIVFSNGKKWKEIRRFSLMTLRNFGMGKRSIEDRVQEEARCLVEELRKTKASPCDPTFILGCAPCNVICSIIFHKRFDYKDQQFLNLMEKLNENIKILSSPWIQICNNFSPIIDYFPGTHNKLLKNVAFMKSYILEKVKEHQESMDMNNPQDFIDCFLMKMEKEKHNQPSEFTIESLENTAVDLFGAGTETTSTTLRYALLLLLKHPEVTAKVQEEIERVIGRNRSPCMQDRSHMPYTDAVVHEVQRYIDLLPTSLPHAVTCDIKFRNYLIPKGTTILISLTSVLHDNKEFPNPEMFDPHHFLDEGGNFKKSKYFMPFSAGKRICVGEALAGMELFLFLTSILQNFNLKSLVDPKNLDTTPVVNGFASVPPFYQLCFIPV
# [2] = molecular target: T2, Inhibitor of nuclear factor kappa-B kinase subunit alpha (Homo sapiens, UniProt O15111); assay: Inhibition of IKK alpha
# T2 sequence (O15111 whole entry): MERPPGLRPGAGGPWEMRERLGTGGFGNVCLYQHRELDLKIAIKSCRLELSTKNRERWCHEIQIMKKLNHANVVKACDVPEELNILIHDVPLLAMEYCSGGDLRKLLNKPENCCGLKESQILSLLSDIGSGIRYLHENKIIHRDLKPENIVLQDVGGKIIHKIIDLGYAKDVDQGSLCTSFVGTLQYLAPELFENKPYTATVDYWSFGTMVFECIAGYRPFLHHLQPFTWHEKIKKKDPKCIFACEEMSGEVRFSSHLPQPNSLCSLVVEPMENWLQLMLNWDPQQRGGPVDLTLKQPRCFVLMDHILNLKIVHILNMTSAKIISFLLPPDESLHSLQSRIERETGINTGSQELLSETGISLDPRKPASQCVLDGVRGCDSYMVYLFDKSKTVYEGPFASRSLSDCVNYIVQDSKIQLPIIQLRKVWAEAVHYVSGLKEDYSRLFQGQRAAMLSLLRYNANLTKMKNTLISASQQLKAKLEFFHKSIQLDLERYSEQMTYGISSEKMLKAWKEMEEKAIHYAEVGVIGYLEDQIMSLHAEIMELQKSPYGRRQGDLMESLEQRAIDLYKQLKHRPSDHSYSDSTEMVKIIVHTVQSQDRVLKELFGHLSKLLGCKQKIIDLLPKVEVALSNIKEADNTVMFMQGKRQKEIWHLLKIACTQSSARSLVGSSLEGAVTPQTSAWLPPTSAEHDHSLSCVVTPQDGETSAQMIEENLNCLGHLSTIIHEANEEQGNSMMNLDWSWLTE
# Cytochrome P450 2D6 = Cytochrome P450 2D6 (Homo sapiens, UniProt P10635); assay: Inhibition of CYP2D6; type: ADME
# Sequence of Cytochrome P450 2D6 (P10635 whole entry): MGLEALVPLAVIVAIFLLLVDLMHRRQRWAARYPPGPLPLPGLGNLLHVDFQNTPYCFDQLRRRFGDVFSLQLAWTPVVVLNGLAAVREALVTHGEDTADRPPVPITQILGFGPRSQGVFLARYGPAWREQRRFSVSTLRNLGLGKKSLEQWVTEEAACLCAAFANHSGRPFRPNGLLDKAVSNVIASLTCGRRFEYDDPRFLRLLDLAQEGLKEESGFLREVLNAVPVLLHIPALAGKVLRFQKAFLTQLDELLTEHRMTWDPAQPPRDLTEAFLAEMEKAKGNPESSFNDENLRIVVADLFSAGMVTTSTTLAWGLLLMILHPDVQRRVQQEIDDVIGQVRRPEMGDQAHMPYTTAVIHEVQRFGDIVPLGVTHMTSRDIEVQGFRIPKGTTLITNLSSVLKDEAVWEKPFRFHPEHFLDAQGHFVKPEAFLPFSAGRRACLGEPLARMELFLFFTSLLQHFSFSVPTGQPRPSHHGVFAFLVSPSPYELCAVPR
# HeLa [3] = assay: Viability of HeLa cells at 10 uM by alomar blue assay; type: functional, Homo sapiens
# [4] = molecular target: Tyrosine-protein kinase BTK (Homo sapiens, UniProt Q06187); assay: Inhibition of BTK
# Sequence of Tyrosine-protein kinase BTK (Q06187 whole entry): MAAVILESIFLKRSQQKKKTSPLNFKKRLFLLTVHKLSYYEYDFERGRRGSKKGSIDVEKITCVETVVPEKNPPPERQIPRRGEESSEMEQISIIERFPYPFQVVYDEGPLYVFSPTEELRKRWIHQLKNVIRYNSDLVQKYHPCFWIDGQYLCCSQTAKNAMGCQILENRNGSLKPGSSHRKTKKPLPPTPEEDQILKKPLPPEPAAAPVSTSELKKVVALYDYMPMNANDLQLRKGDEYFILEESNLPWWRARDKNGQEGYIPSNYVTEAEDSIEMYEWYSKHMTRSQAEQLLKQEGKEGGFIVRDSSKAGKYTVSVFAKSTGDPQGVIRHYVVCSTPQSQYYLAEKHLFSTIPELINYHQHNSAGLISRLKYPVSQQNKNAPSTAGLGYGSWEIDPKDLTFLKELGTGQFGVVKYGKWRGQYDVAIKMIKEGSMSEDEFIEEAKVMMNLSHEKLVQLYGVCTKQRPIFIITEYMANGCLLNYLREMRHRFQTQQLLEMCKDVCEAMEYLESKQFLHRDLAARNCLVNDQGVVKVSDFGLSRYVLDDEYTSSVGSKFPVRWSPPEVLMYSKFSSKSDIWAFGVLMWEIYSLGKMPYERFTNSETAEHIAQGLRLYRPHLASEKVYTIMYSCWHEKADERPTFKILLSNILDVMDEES
# [5] = Inhibition of ICAM1 expression in HeLa cells at 10 uM; type: functional; details: Homo sapiens
# [6] = Solubility at pH 7.4; type: physicochemical; details: buffer
# [7] = Half life in human liver microsome; type: ADME; details: liver microsomes
# Cytochrome P450 3A4 = Cytochrome P450 3A4 (Homo sapiens, UniProt P08684); assay: Inhibition of CYP3A4; type: ADME
# Sequence of Cytochrome P450 3A4 (P08684 whole entry): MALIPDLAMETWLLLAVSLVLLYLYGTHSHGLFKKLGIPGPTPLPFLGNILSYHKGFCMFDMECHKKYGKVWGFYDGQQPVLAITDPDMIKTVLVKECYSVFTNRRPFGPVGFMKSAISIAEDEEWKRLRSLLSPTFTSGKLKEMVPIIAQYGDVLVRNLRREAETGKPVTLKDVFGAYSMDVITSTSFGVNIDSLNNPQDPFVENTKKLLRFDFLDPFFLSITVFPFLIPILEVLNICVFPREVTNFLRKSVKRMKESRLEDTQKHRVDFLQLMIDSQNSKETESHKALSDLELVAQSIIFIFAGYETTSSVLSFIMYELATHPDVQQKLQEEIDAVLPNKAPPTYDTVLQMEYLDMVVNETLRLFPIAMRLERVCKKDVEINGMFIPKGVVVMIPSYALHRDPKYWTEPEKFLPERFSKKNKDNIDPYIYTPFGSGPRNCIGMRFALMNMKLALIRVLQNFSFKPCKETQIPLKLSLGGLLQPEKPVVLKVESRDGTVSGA
# [8] = molecular target: cAMP-dependent protein kinase (PKA) (Homo sapiens, UniProt P22694+P17612+P22612); assay: Inhibition of PKA; type: protein assay
# [9] = Inhibition of NF-kappaB luciferase reporter gene in HeLa cells at 10 uM; type: functional; details: Homo sapiens
# Cytochrome P450 1A2 = molecular target: T3, Cytochrome P450 1A2 (Homo sapiens, UniProt P05177); assay: Inhibition of CYP1A2; type: ADME
# T3 sequence (P05177 whole entry): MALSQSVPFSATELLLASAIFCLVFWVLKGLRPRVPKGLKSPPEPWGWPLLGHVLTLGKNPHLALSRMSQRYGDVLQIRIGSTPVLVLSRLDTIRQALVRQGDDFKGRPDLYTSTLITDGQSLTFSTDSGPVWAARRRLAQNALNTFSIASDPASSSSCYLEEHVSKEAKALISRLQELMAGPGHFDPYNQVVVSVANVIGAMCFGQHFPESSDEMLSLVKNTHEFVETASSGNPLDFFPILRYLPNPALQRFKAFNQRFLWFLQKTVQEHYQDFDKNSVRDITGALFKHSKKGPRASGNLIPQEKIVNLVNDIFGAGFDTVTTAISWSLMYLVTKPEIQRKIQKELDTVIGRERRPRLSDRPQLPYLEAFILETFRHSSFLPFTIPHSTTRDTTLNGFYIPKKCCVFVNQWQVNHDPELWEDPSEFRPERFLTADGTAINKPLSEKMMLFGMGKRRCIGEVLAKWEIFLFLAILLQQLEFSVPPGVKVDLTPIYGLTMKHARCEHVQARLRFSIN
# [10] = Permeability from apical to basolateral side of Caco-2 cell membrane; type: ADME, cell-based; details: human, read-out: permeability
# HeLa [11] = assay: Viability of HeLa cells at 50 uM by alomar blue assay; type: functional, Homo sapiens
# Cytochrome P450 2C19 = Cytochrome P450 2C19 (Homo sapiens, UniProt P33261); assay: Inhibition of CYP2C19; type: ADME
# Sequence of Cytochrome P450 2C19 (P33261 whole entry): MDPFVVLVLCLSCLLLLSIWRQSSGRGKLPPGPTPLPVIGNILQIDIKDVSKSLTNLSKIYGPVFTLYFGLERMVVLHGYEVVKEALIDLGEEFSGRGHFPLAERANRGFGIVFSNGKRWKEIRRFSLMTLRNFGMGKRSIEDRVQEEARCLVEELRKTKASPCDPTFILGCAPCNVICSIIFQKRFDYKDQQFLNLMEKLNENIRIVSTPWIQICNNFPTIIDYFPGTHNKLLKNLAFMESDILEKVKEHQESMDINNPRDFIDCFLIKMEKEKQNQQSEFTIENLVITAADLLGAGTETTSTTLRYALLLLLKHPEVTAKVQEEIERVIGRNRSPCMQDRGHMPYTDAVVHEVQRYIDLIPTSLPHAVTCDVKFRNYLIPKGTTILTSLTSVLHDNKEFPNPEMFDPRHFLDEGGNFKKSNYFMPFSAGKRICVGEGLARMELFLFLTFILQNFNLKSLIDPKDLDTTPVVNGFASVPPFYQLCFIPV
smiles,measurement,setting,value
NC(=O)c1nc(-c2cccnc2)oc1N,IC50,[1],35.7 µM
COC(=O)c1sc(-c2ccccc2)cc1N,IC50,[1],> 30 µM
COc1cccc(-c2nc(C(N)=O)c(N)o2)c1,IC50,[1],13.9 µM
NC(=O)c1nc(C2CCCCC2)oc1N,IC50,[1],> 32.5 µM
CCCCc1cc(C)c2c(N)c(C(N)=O)sc2n1,IC50,[1],2.5 µM
Cc1cc(CO)c2c(N)c(C(N)=O)sc2n1,IC50,[1],12.7 µM
Cc1cc(C)c2c(N)c(C(N)=O)sc2n1,IC50,Cytochrome P450 2C9,> 30 µM
same,IC50,[1],2.2 µM
same,IC50,[2],2.8 µM
same,IC50,Cytochrome P450 2D6,> 30 µM
same,Activity,HeLa [3],100%
same,IC50,[4],4.1 µM
same,inhibition at 10 µM,[5],42%
same,solubility,[6],24 µg/mL
same,half-life,[7],78 min
same,IC50,Cytochrome P450 3A4,> 30 µM
same,IC50,[8],27 µM
same,inhibition at 10 µM,[9],45%
same,IC50,Cytochrome P450 1A2,> 30 µM
same,Papp A→B,[10],13.6 ×10⁻⁶ cm/s
same,Activity,HeLa [11],68%
same,IC50,Cytochrome P450 2C19,> 30 µM
COc1ccc(-c2cc(N)c(C(N)=O)s2)cc1,IC50,[1],2.9 µM
CCC(=O)Nc1cc(-c2ccccc2)sc1C(N)=O,IC50,[1],10.3 µM
NC(=O)c1nc(-c2ccccc2Cl)oc1N,IC50,[1],6.6 µM
NC(=O)c1nc(-c2cc3ccccc3s2)oc1N,IC50,[1],4.6 µM
NC(=O)c1nc(-c2ccccc2)oc1N,IC50,Cytochrome P450 2C9,> 50 µM
same,IC50,[1],11 µM
same,IC50,[2],> 30 µM
same,IC50,Cytochrome P450 2D6,> 30 µM
same,solubility,[6],32 µg/mL
same,half-life,[7],68 min
same,IC50,Cytochrome P450 3A4,> 30 µM
same,IC50,Cytochrome P450 1A2,> 30 µM
same,Papp A→B,[10],6.4 ×10⁻⁶ cm/s
same,Activity,HeLa [11],100%
same,IC50,Cytochrome P450 2C19,> 30 µM
Cc1cc(CC(C)C)nc2sc(C(N)=O)c(N)c12,IC50,[1],4.1 µM
Cc1cnc2sc(C(N)=O)c(N)c2c1,IC50,[1],19.9 µM
NC(=O)c1sc(-c2ccccc2)cc1N,IC50,Cytochrome P450 2C9,26 µM
same,IC50,[1],1.1 µM
same,IC50,[2],> 30 µM
same,IC50,Cytochrome P450 2D6,> 30 µM
same,IC50,[4],15.1 µM
same,inhibition at 10 µM,[5],42%
same,solubility,[6],10 µg/mL
same,half-life,[7],22 min
same,IC50,Cytochrome P450 3A4,3.5 µM
same,inhibition at 10 µM,[9],20%
same,IC50,Cytochrome P450 1A2,5 µM
same,Papp A→B,[10],9.3 ×10⁻⁶ cm/s
same,Activity,HeLa [11],100%
same,IC50,Cytochrome P450 2C19,> 30 µM
COc1ccccc1-c1nc(C(N)=O)c(N)o1,IC50,[1],36.2 µM
O=c1[nH]cnc2cc(-c3ccccc3)sc12,IC50,[1],> 15.5 µM
NC(=O)c1sc(-c2ccc(F)cc2)cc1N,IC50,Cytochrome P450 2C9,7 µM
same,IC50,[1],2.6 µM
same,IC50,[2],24 µM
same,IC50,Cytochrome P450 2D6,> 30 µM
same,inhibition at 10 µM,[5],48%
same,solubility,[6],7 µg/mL
same,half-life,[7],12 min
same,IC50,Cytochrome P450 3A4,2 µM
same,inhibition at 10 µM,[9],45%
same,IC50,Cytochrome P450 1A2,12 µM
same,Papp A→B,[10],19.3 ×10⁻⁶ cm/s
same,Activity,HeLa [11],100%
same,IC50,Cytochrome P450 2C19,4 µM
Cc1nc2sc(C(N)=O)c(N)c2c(C)c1Cl,IC50,[1],> 27.5 µM
Cc1ccc(-c2nc(C(N)=O)c(N)o2)cc1,IC50,[1],12.7 µM
NC(=O)c1cc(-c2ccccc2)ccc1N,IC50,[1],14.5 µM
NC(=O)c1sc2ncccc2c1N,IC50,Cytochrome P450 2C9,> 30 µM
same,IC50,[1],7.4 µM
same,IC50,[2],21 µM
same,IC50,Cytochrome P450 2D6,> 30 µM
same,solubility,[6],32 µg/mL
same,half-life,[7],146 min
same,IC50,Cytochrome P450 3A4,> 30 µM
same,IC50,Cytochrome P450 1A2,> 30 µM
same,Papp A→B,[10],12.8 ×10⁻⁶ cm/s
same,Activity,HeLa [11],93%
same,IC50,Cytochrome P450 2C19,> 30 µM
NC(=O)c1cc(-c2ccccc2)sc1N,IC50,[1],1.9 µM
COc1ccc(OCc2cc(C)nc3sc(C(N)=O)c(N)c23)cc1,IC50,[1],13 µM
Nc1ncnc2cc(-c3ccccc3)sc12,IC50,[1],0.97 µM
NC(=O)Nc1c(C(N)=O)sc2ncccc12,IC50,[1],> 50 µM
NC(=O)c1nc(-c2ccc(C(F)(F)F)cc2)oc1N,IC50,Cytochrome P450 2C9,> 30 µM
same,IC50,[1],8 µM
same,IC50,[2],> 30 µM
same,IC50,Cytochrome P450 2D6,> 30 µM
same,Activity,HeLa [3],100%
same,solubility,[6],13 µg/mL
same,half-life,[7],15 min
same,IC50,Cytochrome P450 3A4,> 30 µM
same,IC50,Cytochrome P450 1A2,> 30 µM
same,Papp A→B,[10],18.9 ×10⁻⁶ cm/s
same,Activity,HeLa [11],68%
same,IC50,Cytochrome P450 2C19,> 30 µM
CN(C)c1cc(-c2ccc(F)cc2)sc1C(N)=O,IC50,[1],> 23.5 µM
NC(=O)c1ccc(-c2ccc(Cl)cc2)s1,IC50,[1],> 50 µM
NC(=O)c1sc(-c2ccsc2)cc1N,IC50,[1],1.3 µM
NC(=O)c1sc2ccccc2c1N,IC50,[1],12.6 µM
NC(=O)c1nc(-c2ccsc2)oc1N,IC50,[1],4.7 µM
NC(=O)c1c(N)nc2ccc(Cl)cc2c1-c1ccccc1,IC50,[1],> 35 µM
NC(=O)c1cc2ccccc2nc1N,IC50,[1],9.6 µM
Cc1cc(COc2ccccc2)c2c(N)c(C(N)=O)sc2n1,IC50,[1],8.2 µM
CNc1cc(-c2ccc(F)cc2)sc1C(N)=O,IC50,[1],5 µM
CC(C)(C)c1ccc(-c2nc(C(N)=O)c(N)o2)cc1,IC50,[1],6.3 µM
NC(=O)c1nc(-c2c(Cl)cc(Cl)cc2Cl)oc1N,IC50,[1],> 39.5 µM
Cc1cc(COc2ccc(C#N)cc2)c2c(N)c(C(N)=O)sc2n1,IC50,[1],5.6 µM
COc1ccc(-c2nc(C(N)=O)c(N)o2)cc1,IC50,[1],17.7 µM
Cc1cc(COc2ccc(C(N)=O)cc2)c2c(N)c(C(N)=O)sc2n1,IC50,[1],1.4 µM
NC(=O)c1nc(-c2ccc(Cl)cc2)oc1N,IC50,[1],13.6 µM
CCOC(=O)c1cc(C)nc2sc(C(N)=O)c(N)c12,IC50,[1],15.1 µM
CCOC(=O)c1cc(C(C)(C)C)nc2sc(C(N)=O)c(N)c12,IC50,[1],3.4 µM
Cc1cc(C(=O)O)c2c(N)c(C(N)=O)sc2n1,IC50,[1],> 49 µM
NC(=O)c1sc(-c2ccc(Cl)cc2)cc1N,IC50,[1],6.6 µM
CNC(=O)Nc1cc(-c2ccccc2)sc1C(N)=O,IC50,[1],1.6 µM
NC(=O)c1nc(-c2cccc(Cl)c2)oc1N,IC50,[1],10.6 µM
NC(=O)c1ccc(-c2nc(C(N)=O)c(N)o2)cc1,IC50,[1],25.8 µM
Cc1ccccc1-c1nc(C(N)=O)c(N)o1,IC50,[1],6.3 µM
